Data from patent US20250101025A1, “NOVEL PLK1 DEGRADATION INDUCING COMPOUND” (UPPTHERA, INC., priority 2021, published 2025).
Read-outs that look alike come from different tables or passages of the source.

Tests used:
Type in all cases: cell-based
MRC-5 cell line = assay: Cell viability assay for MRC-5 cell line (EZ-Cytox cytotoxicity experiment); conditions: Homo sapiens, MRC5, 120 h, MRC-5 normal cell line, 5 days
Method: 4. Cell Viability Assay for MRC-5 Cell Line
(1) Culture of MRC-5 Cell Line
Passage of cultured cells was maintained within P15.
(2) Treatment of Compounds of the Present Invention
Then, it was cultured in 37° C.
(3) Cytotoxicity Experiment
CO2 incubator for 4 hours.

H526 cell line = assay: Cell viability assay for NCI-H526 cell line (EZ-Cytox); conditions: Homo sapiens, NCI-H526, 120 h; H526 cells, 3-fold dilutions 3000 nM to 0.46 nM, 5 days
Method: (1) Culture of NCI-H526 Cell Line
(2) Treatment of Compounds of the Present Invention and Method of Cell Viability Assay
After treating the compound to each well to make the total volume of 200 μL, it was cultured in a CO2 incubator (Thermo Fisher Science, Cat. No. 4111) for 5 days.
The absorbance of the completely cultured sample was measured by setting the wavelength of a plate reader (BMG Labtech, CLARIOstar Plus) to […], and was measured after shaking for 3 minutes in a plate reader before measurement.
In Table 3, Activity represents IC50 value of each Exemplary Compound treatment group to H526 cell line (A: <30 nM, B: <50 nM, C: <100 nM, D: <200 nM, E: <400 nM).

PLK1 = target: T1, PLK1 (Homo sapiens, UniProt P53350); assay: Luciferase assay for PLK1 in HeLa LgBit (Plk1-HiBit KI) cell line; conditions: compound 300 nM, luminescence after 9 hours
T1 construct: endogenous in cells; host or cells: HeLa LgBit (Plk1-HiBit KI): HeLa stably expressing LgBit, with HiBit knocked in at the endogenous Plk1 locus by CRISPR/Cas9
Method: 2. Luciferase Assay for PLK1
(1) Preparation and Culture of HeLa LgBit (Plk1-HiBit KI) Cell Line
A HeLa cell line in which the LgBit vector was transfected and expressed stably was prepared. Then, after constructing gRNA and donor to express the HiBit amino acid sequence behind the C-terminal of the Plk1 gene, which was inherent in the cell, it was inserted into the cell together with a vector capable of expressing CRISPR/Cas9. Only the cells in which the insertion was completed and knock-in had progressed were selected, sub-cultured and used.
(2) Treatment of Compounds of the Present Invention and Method of Luciferase Assay
In the case of HeLa LgBit (Plk1-HiBit KI), the compounds were treated after being released after thymidine block, and the process was as follows. Thymidine (Sigma-Aldrich Cat. No. T9250-5G) was completely dissolved in DW and used in the experiment. For thymidine block, the products were treated with 2 mM of thymidine and then incubated for 24 hours. For release and chemical treatment, the medium was suctioned and washed with 1×PBS. TrypLE™ was added and incubated in 37° C. CO2 incubator for 5 min. Cells neutralized by adding complete media were counted through a counter. For each well of a 96-well culture plate (SPL), 3.3×10^4 cells and a total medium volume of 150 μL were seeded and incubated in a CO2 incubator.
Each cell line was incubated in a CO2 incubator for 18 hours, and Endurazine was added to each well to make up 4% of the total volume. After adding the compound of the present invention in a 96-well white plate (SPL) to a concentration of 300 nM, the wavelength of the plate reader (BMG Labtech, CLARIOstar Plus) was set to […], and then the luminescence was tracked in real time.
In Table 2, Activity represents the ratio of the luminescence value of each Exemplary Compound treatment group to DMSO treatment group (+++: <0.3, ++<0.6, +<0.7).

[1] = highest concentration 10000 nM, N.D. = no cytotoxicity until 10 μM, read-out: Activity: IC50 value to MRC-5 cell line, N.D. cells
[2] = 3-fold dilutions 10000 nM to 1.52 nM, Exemplary Compounds, numeric values, read-out: Activity: IC50 value (nM) to MRC-5 cell line

T1 sequence (P53350 whole entry): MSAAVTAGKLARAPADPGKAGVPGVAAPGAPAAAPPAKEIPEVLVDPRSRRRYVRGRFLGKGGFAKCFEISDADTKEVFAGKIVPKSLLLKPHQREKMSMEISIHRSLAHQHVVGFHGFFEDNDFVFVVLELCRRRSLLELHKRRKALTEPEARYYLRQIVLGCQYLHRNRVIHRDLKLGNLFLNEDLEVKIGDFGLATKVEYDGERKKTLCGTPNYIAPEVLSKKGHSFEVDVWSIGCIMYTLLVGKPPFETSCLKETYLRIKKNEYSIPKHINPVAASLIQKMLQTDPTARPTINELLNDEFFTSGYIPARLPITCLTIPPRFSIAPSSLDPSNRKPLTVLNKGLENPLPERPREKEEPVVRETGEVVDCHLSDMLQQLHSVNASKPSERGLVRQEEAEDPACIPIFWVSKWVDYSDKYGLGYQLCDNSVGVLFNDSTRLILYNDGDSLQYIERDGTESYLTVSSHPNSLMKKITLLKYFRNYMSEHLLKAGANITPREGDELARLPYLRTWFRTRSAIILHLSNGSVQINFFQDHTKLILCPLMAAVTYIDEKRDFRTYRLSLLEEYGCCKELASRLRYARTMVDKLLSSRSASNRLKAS

SMILES	IC50 (MRC-5 cell line; [1]) [nM]	IC50 (H526 cell line) [µM]	Activity: ratio of the luminescence value of each Exemplary Compound treatment group to DMSO treatment group (PLK1)	IC50 (MRC-5 cell line; [2]) [nM]
COc1cc(C(=O)NN2CCC(CCN3CCN(c4ccc(N(C)C5CCC(=O)NC5=O)cc4F)CC3)CC2)ccc1Nc1ncc2c(n1)N(C1CCCC1)CC(F)(F)C(=O)N2C (stereo not drawn) [Compound 23, 4-((9-cyclopentyl-7,7-difluoro-5-methyl-6-oxo-6,7,8,9-tetrahydro-5H-pyrimido[4,5-b][1,4]diazepin-2-yl)amino)-N-(4-(2-(4-(4-((2,6-dioxopiperidin-3-yl)(methyl)amino)-2-fluorophenyl)piperazin-1-yl)ethyl)piperidin-1-yl)-3-methoxybenzamide]	> 10000	< 0.03	+++ (+++: <0.3)	
COc1cc(C(=O)NC2CCN(C(=O)CCN3CCN(c4cccc(C(=O)NC5CCC(=O)NC5=O)c4F)CC3)CC2)ccc1Nc1ncc2c(n1)N(C1CCCC1)CC(F)(F)C(=O)N2C (stereo not drawn) [Compound 6, 3-(4-(3-(4-(4-((9-cyclopentyl-7,7-difluoro-5-methyl-6-oxo-6,7,8,9-tetrahydro-5H-pyrimido[4,5-b][1,4]diazepin-2-yl)amino)-3-methoxybenzamido)piperidin-1-yl)-3-oxopropyl)piperazin-1-yl)-N-(2,6-dioxopiperidin-3-yl)-2-fluorobenzamide]	> 10000	< 0.05	++ (++<0.6)	
COc1cc(C(=O)NN2CCC(CCN3CCN(c4ccc(NC5CCC(=O)NC5=O)cc4F)CC3)CC2)ccc1Nc1ncc2c(n1)N(C1CCCC1)CC(F)(F)C(=O)N2C (stereo not drawn) [Compound 22, 4-((9-cyclopentyl-7,7-difluoro-5-methyl-6-oxo-6,7,8,9-tetrahydro-5H-pyrimido[4,5-b][1,4]diazepin-2-yl)amino)-N-(4-(2-(4-(4-((2,6-dioxopiperidin-3-yl)amino)-2-fluorophenyl)piperazin-1-yl)ethyl)piperidin-1-yl)-3-methoxybenzamide]	> 10000	< 0.03	+++ (+++: <0.3)	
COc1cc(C(=O)NC2CCN(C(=O)CCCNc3ccc(C(=O)NC4CCC(=O)NC4=O)cc3)CC2)c(F)cc1Nc1ncc2c(n1)N(C1CCCC1)CC(F)(F)C(=O)N2C (stereo not drawn) [Compound 1, 4-((9-cyclopentyl-7,7-difluoro-5-methyl-6-oxo-6,7,8,9-tetrahydro-5H-pyrimido[4,5-b][1,4]diazepin-2-yl)amino)-N-(1-(4-((4-((2,6-dioxopiperidin-3-yl)carbamoyl)phenyl)amino)butanoyl)piperidin-4-yl)-2-fluoro-5-methoxybenzamide]	> 10000	< 0.05	++ (++<0.6)	
COc1cc(C(=O)NCC2CC3(CCN(CC4CCN(c5c(F)cc(NC6CCC(=O)NC6=O)cc5F)CC4)CC3)C2)ccc1Nc1ncc2c(n1)N(C(C)C)CC(F)(F)C(=O)N2C (stereo not drawn) [Compound 30, 4-((7,7-difluoro-9-isopropyl-5-methyl-6-oxo-6,7,8,9-tetrahydro-5H-pyrimido[4,5-b][1,4]diazepin-2-yl)amino)-N-((7-((1-(4-((2,6-dioxopiperidin-3-yl)amino)-2,6-difluorophenyl)piperidin-4-yl)methyl)-7-azaspiro[3.5]nonan-2-yl)methyl)-3-methoxybenzamide]		< 0.03	+++ (+++: <0.3)	7870
COc1cc(C(=O)NC2CC3(CCN(CC4CCN(c5ccc(OC6CCC(=O)NC6=O)cc5F)CC4)CC3)C2)ccc1Nc1ncc2c(n1)N(C(C)C)CC(F)(F)C(=O)N2C (stereo not drawn) [Compound 35, 4-((7,7-difluoro-9-isopropyl-5-methyl-6-oxo-6,7,8,9-tetrahydro-5H-pyrimido[4,5-b][1,4]diazepin-2-yl)amino)-N-(7-((1-(4-((2,6-dioxopiperidin-3-yl)oxy)-2-fluorophenyl)piperidin-4-yl)methyl)-7-azaspiro[3.5]nonan-2-yl)-3-methoxybenzamide]		< 0.05	+++ (+++: <0.3)	16900
COc1cc(C(=O)NN2CCC(CCN3CCN(c4cccc(C(=O)NC5CCC(=O)NC5=O)c4)CC3)CC2)ccc1Nc1ncc2c(n1)N(C1CCCC1)CC(F)(F)C(=O)N2C (stereo not drawn) [Compound 10, 4-((9-cyclopentyl-7,7-difluoro-5-methyl-6-oxo-6,7,8,9-tetrahydro-5H-pyrimido[4,5-b][1,4]diazepin-2-yl)amino)-N-(4-(2-(4-(3-((2,6-dioxopiperidin-3-yl)carbamoyl)phenyl)piperazin-1-yl)ethyl)piperidin-1-yl)-3-methoxybenzamide]	> 10000	< 0.03	++ (++<0.6)	
COc1cc(C(=O)NN2CCC(CCN3CCN(c4cccc(C(=O)NC5CCC(=O)NC5=O)c4)CC3)C2)ccc1Nc1ncc2c(n1)N(C1CCCC1)CC(F)(F)C(=O)N2C (stereo not drawn) [Compound 11, 4-((9-cyclopentyl-7,7-difluoro-5-methyl-6-oxo-6,7,8,9-tetrahydro-5H-pyrimido[4,5-b][1,4]diazepin-2-yl)amino)-N-(3-(2-(4-(3-((2,6-dioxopiperidin-3-yl)carbamoyl)phenyl)piperazin-1-yl)ethyl)pyrrolidin-1-yl)-3-methoxybenzamide]	> 10000	< 0.03	++ (++<0.6)	
COc1cc(C(=O)NN2CCC(CN3CCN(c4ccc(NC5CCC(=O)NC5=O)cc4F)CC3)CC2)ccc1Nc1ncc2c(n1)N(C(C)C)CC(F)(F)C(=O)N2C (stereo not drawn) [Compound 17, 4-((7,7-difluoro-9-isopropyl-5-methyl-6-oxo-6,7,8,9-tetrahydro-5H-pyrimido[4,5-b][1,4]diazepin-2-yl)amino)-N-(4-((4-(4-((2,6-dioxopiperidin-3-yl)amino)-2-fluorophenyl)piperazin-1-yl)methyl)piperidin-1-yl)-3-methoxybenzamide]	> 10000	< 0.05	++ (++<0.6)	
COc1cc(C(=O)NC2CCN(CC3CN(c4ccc(NC5CCC(=O)NC5=O)cc4F)C3)CC2)ccc1Nc1ncc2c(n1)N(C(C)C)CC(F)(F)C(=O)N2C (stereo not drawn) [Compound 20, 4-((7,7-difluoro-9-isopropyl-5-methyl-6-oxo-6,7,8,9-tetrahydro-5H-pyrimido[4,5-b][1,4]diazepin-2-yl)amino)-N-(1-((1-(4-((2,6-dioxopiperidin-3-yl)amino)-2-fluorophenyl)azetidin-3-yl)methyl)piperidin-4-yl)-3-methoxybenzamide]	> 10000	< 0.05	++ (++<0.6)	
COc1cc(C(=O)NN2CCC(CN3CCN(c4ccc(NC5CCC(=O)NC5=O)cc4C(F)(F)F)CC3)CC2)ccc1Nc1ncc2c(n1)N(C(C)C)CC(F)(F)C(=O)N2C (stereo not drawn) [Compound 21, 4-((7,7-difluoro-9-isopropyl-5-methyl-6-oxo-6,7,8,9-tetrahydro-5H-pyrimido[4,5-b][1,4]diazepin-2-yl)amino)-N-(4-((4-(4-((2,6-dioxopiperidin-3-yl)amino)-2-(trifluoromethyl)phenyl)piperazin-1-yl)methyl)piperidin-1-yl)-3-methoxybenzamide]	> 10000	< 0.1	++ (++<0.6)	
